Source: patent US20060194776A1, “Compositions and methods for treating tissue ischemia” (priority 2003, published 2006)
Where two headings read alike, the source gives them in different places.

Assays:
[1] = test system: endothelial progenitor cells (EPCs) in peripheral blood
Protocol: (§1) Peripheral blood mononuclear cells (PBMNCS) were isolated from 500 μl of peripheral blood obtained from each mouse. PBMNCs were cultured in EBM media (Clonetics, San Diego, Calif.) with 5% fetal bovine serum (FBS), antibiotics, and growth factors (EPC medium) on four-well glass slides coated with rat plasma vitronectin (Sigma) in 0.5% gelatin solution. Four days after culture, EPCs, recognized as attaching spindle-shaped cells, were assayed by co-staining with acetylated LDL (acLDL)-DiI (Biomedical Technologies, Stoughton, Mass.) and Bandeiraea simplicifolia (BS-1) lectin I (Vector Laboratories, Burlingame, Calif.), indicators of endothelial lineage, and conjugated with FITC (Sigma). EPCs were identified as double-positive cells under fluorescent microscopy. The number of double-positive cells per sample, measured in fifteen fields under 20× magnification, was counted in a blinded manner.

[2] = test system: X-gal positive cells (bone-marrow derived endothelial cells) in left ventricle; conditions: for number of X-gal positive cells: infarct and border area, Tie2-LacZ/BMT mice
Source text: This Example describes the experimental design of the Tie2-LacZ/BMT mouse model. […] FVB/N background mice (n=30) were irradiated to kill their endogenous bone marrow. They were then given a bone marrow transplant (BMT) of 2×10^6 mononuclear cells (MNCs) derived from age-matched (4 weeks old) Tie2-LacZ mice (FVB/N-TgN[TIE2LacZ]182Sato, Jackson Lab). AMIs were induced in the mice (now called Tie2-LacZ/BMT mice) by LAD ligation four weeks after BMT, by which time the bone marrow of the recipient mice had been reconstituted. Right after AMI, the mice were each given a single subcutaneous injection of AMD-3100 (125 μg) or saline (control). Bone marrow cells were obtained using procedures described above. Bone marrow mononuclear cells were also isolated by density centrifugation. Tissue analysis was done at one or two weeks.
Tie-2/LZ/BMT mice were sacrificed at one and two weeks after MI. The explanted hearts were sliced in a bread-loaf fashion into transverse sections from apex to base (base-, mid-, and apex-portions). Mid-portions of the hearts were fixed in 4% paraformaldehyde for three hours at room temperature and incubated in X-gal solution overnight at 37° C. The target tissue samples were then placed in PBS [need to spell this out] and examined under a dissecting microscope for macroscopic identification of lacZ-expressing cells. Histological sections of the mid-portion heart tissue were counterstained with hematoxylin and eosin and assessed by light microscopy. The number of X-gal positive cells in six randomly chosen fields at 40× magnification were counted in a blinded manner.
Left ventricle sections of AMD-3100-treated and control Tie2-LacZ/BMT mice were analyzed one and two weeks after AMI. […] The quantitative analysis of X-gal positive cells was evaluated by histological examination of six randomly selected fields in the infarct and border area.

[3] = test system: EPCs isolated from peripheral blood; conditions: one week after MI
Protocol: (§2) Fluorescence-activated cell sorting (FACS) was used to identify EPCs from mononuclear cells isolated both from peripheral blood and bone marrow. The viable mononuclear cell population was analyzed for the expression of Sca-1-FITC (Pharmingen) and Flk-1 (Santa Cruz) conjugated with the corresponding phycoerythrin-labeled secondary antibody (Sigma). Isotype-identical antibodies served as negative controls. Immunofluorescence-labeled cells were fixed with 2% paraformaldehyde and analyzed by quantitative flow cytometry using a FACStar flow cytometer (Becton Dickinson) and Cell Quest Software that counted 10,000 events per sample.

[4] = test system: EPCs in BM mononuclear cells; conditions: one week after MI
Protocol: as §2

[5] = test system: MMP-2; conditions: one week after MI; RT-PCR
Protocol: To clarify the mechanism of BM-EPC kinetics induced by AMD3100, RT-PCR was performed for MMP-9 mRNA expression on BM-mononuclear cells one week after MI was performed. RNA was extracted from mononuclear cells isolated from bone marrow using TRIzol reagent (Invitrogen) according to the manufacture's instruction. Reverse transcriptase-polymerase chain reaction (RT-PCR) of the MMP-9 and GAPDH genes was performed using 1 μg of total RNA. PCR was performed for 25 cycles for both MMP-9 and GAPDH; each cycle maintained 94° C. for 30 seconds and 64° C. for three minutes. Amplification was carried out in 20-μl reaction mixtures containing 0.4 U Taq polymerase.

[6] = test system: BS lectin 1 and β-gal double-positive cells; conditions: one week after AMI; 400×
Protocol: Apex-sections from the Tie-2/LZ/BMT mice were embedded in OCT compound (Miles Scientific) and snap-frozen in liquid nitrogen for fluorescence microscopy immediately after sacrifice. Immunohistochemical staining was performed using antibodies against the rabbit anti-B-galactosidase IgG (CORTEX Biochem) and the murine-specific EC marker fluorescein griffonia simplicifolia lectin I (Vector Laboratories).
Sections of ischemic (FIGS. 12A-12F) and intact (FIGS. 13A-13F) myocardium were stained for both BS lectin 1 (green fluorescence) and β-galactosidase (red fluorescence).

[7] = test system: EPCs in peripheral blood
Protocol: as §1
To evaluate the effect of AMD-3100 on circulating EPC kinetics, EPC counts (cells/mm^2) were taken from peripheral blood one and two weeks after AMI. At each time point after the induction of MI, mononuclear cells were isolated from peripheral blood and total BM cells that had been obtained by flushing the tibias and femurs. EPCs were counted by culturing as described in Example 1, and stained with both acLDL-DiI and BS-1 lectin. Double positive cells were counted in 15 fields under objective 20× magnification per sample in a blinded manner.

[8] = test system: FVB mice after MI (LAD ligation)
Protocol: (§3) Eight-week old male FVB mice were anesthetized with sodium pentobarbital (50 mg/kg IP). The animals were intubated orally with a 22G IV catheter and artificially ventilated with a respirator (Harvard Apparatus). A left intercostal thoracotomy was performed and the ribs were retracted with 5-0 polypropylene sutures. After the pericardium was opened, the left anterior descending (LAD) branch of the left coronary artery was ligated proximal to the bifurcation between the LAD and the diagonal branch using 8-0 polypropylene sutures and visualized with a dissecting microscope. Positive end-expiratory pressure was applied to fully inflate the lungs, and the chest was closed with 7-0 polypropylene sutures. After the closure of chest wall, mice randomly received either a single subcutaneous injection of 125 μg AMD3100 (AMD group) or saline (control group). After physiological assessment at one, two and four weeks after MI, a subgroup of the mice were euthanized by intravenous administration of a lethal dose of pentobarbital.
Transthoracic echocardiography (SONOS 5500, Hewlett Packard) was performed just before MI and one, two and four weeks after MI. Left ventricular diastolic (LVDd) and systolic (LVDs) dimensions and fractional shortening were measured at the mid-papillary muscle level. Hemodynamic measurements were obtained at two and four weeks after MI using a 1.0-French high-fidelity pressure catheter (Millar Instruments, Houston, Tex.) via the left carotid artery. LV systolic pressure and maximal positive (+dP/dt) and negative (−dP/dt) pressure development were recorded after stabilization of LV function and heart rate.

[9] = test system: capillaries of left ventricular myocardium; conditions: two weeks after AMI
Protocol: (§4) The explanted hearts of sacrificed mice were sliced in a bread-loaf fashion into transverse sections from apex to base (base-, mid-, and apex-portions) and fixed with 4% paraformaldehyde. Tissues were embedded in paraffin and sectioned for elastic tissue/trichrome staining and immunohistochemistry using the murine-specific EC marker Bandeiraea simplicifolia lectin I (Isolectin B4) (Vector laboratories).
(§5) Capillary density was assessed by histological examination of five randomly selected fields of tissue sections from segments of the left ventricular myocardium served by the occluded LAD. Capillaries were recognized as tubular structures positive for isolectin B4. Elastic tissue/trichrome-stained tissues from the mice four weeks after MI were used to measure the average ratio of the external circumference of fibrosis area to LV area.

[10] = test system: left ventricle fibrosis; conditions: two weeks after AMI
Protocol: as §4, §5

[11] = test system: mice after AMI
Protocol: as §3
All values were expressed as mean±the standard error of the mean. Statistical significance was evaluated using Wilcoxon Rank Sum Test for comparisons between mice receiving AMD3100 and those receiving saline. Overall survival of all the mice was assessed by Kaplan-Meier analysis. Survival in individual experimental groups was also analyzed by Fisher's extract probability test. A p value of less than 0.05 was considered statistically significant.

[12] = 1 week after MI, 125 μg s.c. after MI
[13] = 2 weeks after MI, 125 μg s.c. after MI
[14] = 2 weeks after MI, 125 μg s.c. after MI, listed as AMD
[15] = 4 weeks after MI, 125 μg s.c. after MI
[16] = 4 weeks after MI, 125 μg s.c. after MI, listed as AMD

c1cc(CN2CCCNCCNCCCNCC2)ccc1CN1CCCNCCNCCCNCC1 [AMD-3100, 1,1′-[1,4-phenylene-bis(methylene)]-bis-1,4,8,11-tetraazacyclotetradecane]
maximal MNCs and EPCs (number) ([1]; 1 hour after single s.c. injection of 125 μg, FVB/N mice, peripheral blood): 613±89 cells/mm^2
time until MNC/EPC numbers returned to baseline ([1]; after single s.c. injection of 125 μg): ≤ 24 h
time of maximal MNCs and EPCs after drug administration ([1]; single s.c. injection of 125 μg): 1 h
number of X-gal positive cells ([2]; 1 week after AMI): 3776±113 /mm2
number of X-gal positive cells ([2]; 2 weeks after AMI): 1906±138 μmm2
X-gal staining of the left ventricle (macroscopic) vs controls ([2]; one and two weeks after AMI): marked increase
EPCs (Sca-1/Flk-1 double positive) in peripheral blood by FACS [3]: 11.3±1.4%
EPCs (Sca-1/Flk-1 positive) in BM mononuclear cells by FACS [4]: 1.9±0.1%
expression of MMP-2 in BM mononuclear cells [5]: not
double-positive cells in a representative section [6]: eight
double-positive cells in another representative section [6]: eight
double-positive cells in tissue (merged fluorescence microscopy) [6]: marked increase
number of cultured EPCs ([7]; four weeks after AMI): returned to basline
number of EPCs in peripheral blood ([7]; one week after AMI): 868±210 /mm^2
number of EPCs in peripheral blood ([7]; two weeks after AMI): 556±47 /mm^2
FS (fractional shortening) [8, 12]: 35 ± 2%
HR (heart rate) [8, 12]: 494 ± 24 bpm
LVDd [8, 12]: 3.5 ± 0.1 mm
LVDs [8, 12]: 2.2 ± 0.1 mm
FS (fractional shortening) [8, 13]: 34±1%
HR (heart rate) [8, 13]: 515 ± 16 bpm
LV +dP/dt [8, 13]: 3383±104 mm Hg/s
LV −dP/dt [8, 13]: 2213±113 mm Hg/s
LVDd [8, 13]: 3.8±0.1 mm
LVDs [8, 13]: 2.5±0.1 mm
LVEDP [8, 13]: 1.6±0.4 mmHg
LVSP [8, 13]: 71±2 mmHg
FS (fractional shortening) [8, 14]: 34±1%
LV +dP/dt [8, 14]: 3475±168 mm Hg/s
LV −dP/dt [8, 14]: 2842 ± 200 mm Hg/s
LVDd [8, 14]: 3.8 ± 0.1 mm
LVDs [8, 14]: 2.5 ± 0.1 mm
LVEDP [8, 14]: 1.5±0.2 mmHg
LVSP [8, 14]: 73 ± 3 mmHg
LVDd ([8]; 2 weeks after MI, 125 μg s.c. after MI, listed as AMD3100): 3.8±0.1 mm
LVDs ([8]; 3 wks after MI (as printed in text)): 2.5±0.2 mm
HR (heart rate) [8, 15]: 473 ± 26 bpm
LV −dP/dt [8, 15]: 2213 ± 112 mm Hg/s
LVDd [8, 15]: 4.0±0.1 mm
LVDs [8, 15]: 2.6±0.2 mm
FS (fractional shortening) [8, 16]: 28±1%
LV +dP/dt [8, 16]: 3383±104 mm Hg/s
LVDd [8, 16]: 4.0 ± 0.1 mm
LVDs [8, 16]: 2.9 ± 0.1 mm
LVEDP [8, 16]: 1.6±0.4 mmHg
LVSP [8, 16]: 71±2 mmHg
difference in heart rate between the two groups ([8]; after MI, vs control group): no significant difference
FS (fractional shortening) ([8]; before MI): 52 ± 1%
HR (heart rate) ([8]; before MI): 510 ± 26 bpm
LVDd ([8]; before MI): 2.8 ± 0.1 mm
LVDs ([8]; before MI): 1.4 ± 0.1 mm
LVDd, LVDs, fractional shortening, and heart rate, difference between the groups ([8]; before MI and one week after MI, vs saline): not significantly different
difference in LVSP between the groups ([8]; two weeks after MI, vs control): no significant difference
capillary density in border zone [9]: 4005±189 /mm^2
fibrosis area of left ventricle [10]: 25±6%
mice still living ([11]; 14 weeks after AMI (so in the source), FIG. 4A): 64%
mice died ([11]; another group of mice, four weeks after MI, FIG. 4B): 42%
survival rate vs mice receiving saline ([11]; four weeks after MI, FIG. 4B): higher
